# According to US20230117205A1, “B7-H4 ANTIBODY-DRUG CONJUGATES FOR THE TREATMENT OF CANCER” (SEAGEN INC., priority 2021, published 2023):
# Columns and labels:
# [1] = system: F4/80+ macrophages in MDA-MB-468 xenograft tumors; experiment: IHC for F4/80+ macrophages in MDA-MB-468 xenograft tumors; assay type: in vivo, NSG mice; settings: single 3 mg/kg dose; 7 days after treatment
# Description: Specifically, female NSG mice were implanted with 1×10^6 MDA-MB-468 cells in 25% Matrigel H C subcutaneously. Once tumor volumes reached ˜250-300 mm^3, mice were randomized into treatment groups of 6 mice each and treated with a single 3 mg/kg dose of ADC or mAb, or vehicle control (20 mM Histidine buffer, pH 6.0) injected intraperitoneally (i.p.). Stock concentrations of ADC were diluted to desired concentration with 20 mM Histidine buffer, pH 6.0 or and stock concentration of mAb were diluted to desired concentration with 0.01% Tween20 in PBS. Twenty-four hours prior to dosing, each animal was treated with 10 mg/kg hIVIG. One week following treatment, tumors were harvested, cut in half, and processed for RNAseq (frozen at −80° C.) or formalin-fixed and paraffin-embedded for immunohistochemical (IHC) analysis.
# For IHC, FFPE blocks were sectioned at 4 μm and sections were placed on charged slides. Slides were baked for 1 hr at 60° C. […]
# Scanned images were analyzed with Halo image analysis software v. 3.1.1076 (Indica Labs), using the area quantification algorithm for CD11c and F4/80 and the cytonuclear algorithm for all other antibodies. […] Percent area of positive tissue, tumor and stroma were determined. […]
# [2] = system: B7-H4 expression on OVCAR3 tumors; experiment: IHC of B7-H4 on treated OVCAR3 xenograft tumors; assay type: in vivo, SCID mice; settings: OVCAR3 tumors after treatment
# Description: Antigen retrieval was performed using a Decloaking Chamber NxGen Biocare and the 110° C. program with Diva Retrieval solution. Slides were stained on the IntelliPath Automated stainer per the following protocol: Remove hot containers from the decloaking chamber and rinse in deionized water. Place slides in TBST prior to adding to IntelliPath. Hydrate slides on stainer prior to automation Add 300 uL/slide Peroxidaze (Biocare #PX968) and incubate 10 minutes. Wash slides in TBST. Add 300 uL/slide Sniper block (Biocare #B5966) and incubate 10 minutes. Blot off blocking solution. Add 300 uL/slide primary antibody and incubate 1 hour. Wash slides twice in TBST. Add 300 uL/slide HRP polymer and incubate 30 minutes. Wash slides twice in TBST. Add 300 uL/slide DAB (Vector #sk-4103) and incubate 5 minutes. Wash in TBST. Add 300 uL/slide hematoxylin and incubate 2 minutes. Wash in deionized water. Dehydrate slides by placing them in the oven for 30 minutes. Place coverslip on slides. Images were analyzed using Halo image analysis software (Indica Labs). The H-score was calculated according to the following equation: (3×% Strong Signal)+(2×% Moderate Signal)+(Weak Signal). […]
substance,measurement,setting,value
SGN-B7H4V: ADC of fully human IgG1 anti-B7-H4 mAb conjugated to monomethyl auristatin E (MMAE) via a protease-cleavable valine-citrulline linker (vedotin),proportion of F4/80+ macrophages in tumor nest and stroma,[1],increase in the proportion of F4/80+ macrophages
same,impact on tumor B7-H4 expression,[2],did not have a significant impact
